One experiment addresses T1, HDAC7 (Homo sapiens, UniProt Q8WUI4).
T1 sequence (Q8WUI4 1-952): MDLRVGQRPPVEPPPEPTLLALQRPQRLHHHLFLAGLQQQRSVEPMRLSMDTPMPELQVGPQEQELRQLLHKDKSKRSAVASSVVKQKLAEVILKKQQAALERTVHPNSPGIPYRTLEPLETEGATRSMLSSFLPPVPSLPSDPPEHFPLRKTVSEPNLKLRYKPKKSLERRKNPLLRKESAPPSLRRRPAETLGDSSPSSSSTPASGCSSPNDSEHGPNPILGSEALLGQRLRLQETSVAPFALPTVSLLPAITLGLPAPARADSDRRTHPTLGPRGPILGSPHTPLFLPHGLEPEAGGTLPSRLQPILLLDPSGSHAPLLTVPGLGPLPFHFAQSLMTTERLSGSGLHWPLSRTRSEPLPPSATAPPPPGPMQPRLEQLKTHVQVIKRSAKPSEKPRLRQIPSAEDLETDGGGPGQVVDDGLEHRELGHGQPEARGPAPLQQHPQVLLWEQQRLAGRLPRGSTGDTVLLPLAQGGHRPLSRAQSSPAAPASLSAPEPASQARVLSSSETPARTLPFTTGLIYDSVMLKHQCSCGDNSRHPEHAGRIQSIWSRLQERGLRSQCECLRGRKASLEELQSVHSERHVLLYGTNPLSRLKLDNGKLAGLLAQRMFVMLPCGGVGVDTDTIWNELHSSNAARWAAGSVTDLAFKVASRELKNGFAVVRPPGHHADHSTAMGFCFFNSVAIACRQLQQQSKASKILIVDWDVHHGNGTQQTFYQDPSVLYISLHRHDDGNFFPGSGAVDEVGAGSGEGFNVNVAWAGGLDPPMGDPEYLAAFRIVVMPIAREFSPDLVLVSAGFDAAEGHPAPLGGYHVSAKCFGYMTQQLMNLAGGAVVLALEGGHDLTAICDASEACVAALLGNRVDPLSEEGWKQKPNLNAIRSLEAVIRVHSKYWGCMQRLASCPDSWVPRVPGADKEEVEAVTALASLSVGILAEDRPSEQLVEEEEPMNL
Briefly: HDAC biochemical activity measurement (fluorescent substrate deacetylation).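 Further: fluorogenic deacetylation assay using acetyl-lysine substrate at 20 µM, enzyme and compound incubated 30 min at 37 °C, then developer added, fluorescence read at 360/460 nm.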 The conditions noted are these: HDAC7; 37° C. 30 minutes.

The test system of experiment [1] is K562 (human leukemia cells). The experiment in a line: MTT cancer cell growth inhibition. Type of experiment: cell-based. To be noted: MTT, 72 hours incubation, K562 cells, read-out: GI50 K562. In short, it runs like this:
(§1)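 GI50 values come from MTT viability: after 72 h compound exposure (final 10^−5–10^−10 M, three wells each) of cells plated overnight at 1500/well in 10% FBS medium, MTT was given for 4 h. The DMSO-solubilised formazan was then measured at 570 nm.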

Experiment [2] relates to SGC-7901 (human gastric cancer cells). The experiment in a line: MTT cancer cell growth inhibition. Type of experiment: cell-based. To be noted: MTT, 72 hours incubation, SGC-7901 cells, read-out: GI50 SGC-7901. In short, it runs like this: as §1
For experiment [3], the system named is lncap (prostate cancer cells). Briefly: MTT cancer cell growth inhibition. Type of experiment: cell-based. The conditions noted are these: lncap cells, MTT, 72 hours incubation, read-out: GI50 lnca. In short, it runs like this: as §1
The subject of experiment [4] is MCF-7 (human breast cancer cells). Briefly: MTT cancer cell growth inhibition. The conditions noted are these: MCF-7 cells, 72 hours incubation, read-out: GI50 MCF. Type of experiment: cell-based. In short, it runs like this: as §1
Experiment [5] relates to MOLT-4 (human acute lymphoblastic leukemia cells). The experiment in a line: MTT cancer cell growth inhibition. Type of experiment: cell-based. To be noted: MOLT-4 cells, MTT, 72 hours incubation, read-out: GI50 Mol. In short, it runs like this: as §1
Experiment [6] deals with Hela (human cervical cancer cells). Briefly: MTT cancer cell growth inhibition. The conditions noted are these: Hela cells, MTT, 72 hours incubation, read-out: GI50 Hela. Type of experiment: cell-based. In a few lines:
as §1

Experiment [7] deals with H1975 (non-small cell lung adenocarcinoma). Briefly: MTT cancer cell growth inhibition. Type of experiment: cell-based. The conditions noted are these: MTT, 72 hours incubation, H1975 cells, read-out: GI50 H1975. In short, it runs like this:
as §1

Experiment [8] deals with KBM-5 (human chronic myelogenous leukemia). Briefly: MTT cancer cell growth inhibition. Type of experiment: cell-based. To be noted: MTT, 72 hours incubation, KBM-5 cells, read-out: GI50 KBM-5. In a few lines: as §1
Experiment [9] relates to MDA-MB-231 (breast cancer cells). The experiment in a line: MTT cancer cell growth inhibition. Type of experiment: cell-based. In a few lines: as §1
Experiment [10] deals with BGC-823 (human gastric cancer cells). Briefly: MTT cancer cell growth inhibition. Type of experiment: cell-based. To be noted: BGC-823 cells, MTT, 72 hours incubation, read-out: GI50 BG. In short, it runs like this: as §1
In experiment [11] the test system is A549 (human lung cancer cells). Briefly: MTT cancer cell growth inhibition. Type of experiment: cell-based. To be noted: A549 cells, MTT, 72 hours incubation, read-out: GI50 A54. In short, it runs like this: as §1
The test system of experiment [12] is U937 (human leukemia cells). The experiment in a line: MTT cancer cell growth inhibition. Type of experiment: cell-based. To be noted: U937 cells, MTT, 72 hours incubation, read-out: GI50 U93. In short, it runs like this: as §1
In experiment [13] the test system is PANC-1 (Pac-1, human pancreatic cancer cells). The experiment in a line: MTT cancer cell growth inhibition. Type of experiment: cell-based. To be noted: PANC-1 cells, MTT, 72 hours incubation, read-out: GI50 PAN. In a few lines: as §1
In experiment [14] the test system is Huh-7 (human hepatoma cells). The experiment in a line: MTT cancer cell growth inhibition. The conditions noted are these: MTT, 72 hours incubation, Huh-7 cells, read-out: GI50 Huh-7. Type of experiment: cell-based. In a few lines:
as §1

Experiment [15] deals with KBM5-T315I (human chronic myelogenous leukemia). Briefly: MTT cancer cell growth inhibition. The conditions noted are these: MTT, 72 hours incubation, KBM5-T315I cells, read-out: GI50 KBM5-T315I. Type of experiment: cell-based. In short, it runs like this: as §1
Experiment [16] concerns N-87 (human gastric cancer cells). Briefly: MTT cancer cell growth inhibition. Type of experiment: cell-based. To be noted: MTT, 72 hours incubation, N-87 cells, read-out: GI50 N-87. In a few lines: as §1
Experiment [17] relates to HCC827 (human non-small cell lung cancer cells). The experiment in a line: MTT cancer cell growth inhibition. Type of experiment: cell-based. To be noted: MTT, 72 hours incubation, HCC827 cells, read-out: GI50 HCC827. In a few lines:
as §1

Experiment [18] deals with Bel-7402 (human hepatoma cells). Briefly: MTT cancer cell growth inhibition. Type of experiment: cell-based. The conditions noted are these: MTT, 72 hours incubation, Bel-7402 cells, read-out: GI50 Bel-7402. In short, it runs like this: as §1
The subject of experiment [19] is DU145 (human prostate cancer cells). The experiment in a line: MTT cancer cell growth inhibition. Type of experiment: cell-based. The conditions noted are these: DU145 cells, MTT, 72 hours incubation, read-out: GI50 Du1. In short, it runs like this:
as §1

The subject of experiment [20] is HT1080 (human fibrosarcoma cells). The experiment in a line: MTT cancer cell growth inhibition. Type of experiment: cell-based. To be noted: HT1080 cells, MTT, 72 hours incubation, read-out: GI50 HT1. In short, it runs like this:
as §1

Where [21] appears, read: Homo sapiens, MDA-MB-231, 72 h, read-out: GI50 MDA-MB-231, MTT, 72 hours incubation, MDA-MB-231 cells.

Like-named read-outs stand apart in the source and are kept apart here.

One may read the GI50 as the concentration that inhibits growth by half. Take `C/C=C1\NC(=O)c2cc(SC)cc(n2)CNC(=O)C[C@@H](/C=C/CCSC(C)=O)OC(=O)[C@H](C)NC1=O` [Compound 214]: the “IC50 HDAC7” value at HDAC7 is on record as “no activity”. The GI50 was found to be 0.071 µM in experiment [1]; 0.068 µM in experiment [2]; 0.11 µM in experiment [3]; 0.05 µM in experiment [4]; 0.05 µM in experiment [5]; 0.06 µM in experiment [6]. Also, the GI50 in experiment [7] is 0.063 µM; in [8], 0.019 µM; in experiment [9] (read-out: GI50 MDA-MB-231, MTT, 72 hours incubation, MDA-MB-231 cells) it was 0.015 µM; in [10], 0.02 µM; in experiment [11] it was 0.09 µM; in [12], 0.05 µM. In addition, the GI50 in experiment [13] stood at 0.04 µM; in [14], 0.041 µM; in [15] it was 0.073 µM; in [16], 0.095 µM; in experiment [17] it was 0.035 µM; in experiment [18], 0.071 µM. Further, the GI50 in experiment [19] and in [20] was 0.04 µM each time.
In the case of `C/C=C1\NC(=O)c2nc(ccc2SC)CNC(=O)C[C@@H](/C=C/CCSC(=O)CCCCCC)OC(=O)[C@H](C(C)C)NC1=O` [Compound 150], at HDAC7, the “IC50 HDAC7” value is recorded as “no activity”. Moreover, the GI50 in [1] (Homo sapiens, K562, 72 h) stood at 0.055 µM; in experiment [2] (Homo sapiens, SGC-7901, 72 h), 0.087 µM; in experiment [3] (Homo sapiens, LNCaP, 72 h) it was 0.06 µM; in experiment [4] (Homo sapiens, MCF7, 72 h), 0.04 µM; in [5] (Homo sapiens, MOLT-4, 72 h), 0.08 µM; in experiment [6] (Homo sapiens, HeLa, 72 h), 0.06 µM. The GI50 in [7] (Homo sapiens, NCI-H1975, 72 h) is 0.079 µM; in experiment [8] (Homo sapiens, KBM5, 72 h), 0.026 µM; in experiment [9] (setting [21]), 0.021 µM; in experiment [10] (Homo sapiens, BGC-823, 72 h) it was 0.03 µM; in experiment [11] (Homo sapiens, A549, 72 h), 0.03 µM; in [12] (Homo sapiens, U-937, 72 h), 0.03 µM. Besides, the GI50 in experiment [13] (Homo sapiens, PANC-1, 72 h) came out at 0.03 µM; in experiment [14] (Homo sapiens, Huh-7, 72 h), 0.046 µM; in [15] (Homo sapiens, 72 h), 0.039 µM; in experiment [16] (Homo sapiens, 72 h) it was 0.033 µM; in experiment [17] (Homo sapiens, HCC827, 72 h) it was 0.063 µM; in experiment [18] (Homo sapiens, Bel-7402, 72 h) it was 0.058 µM. The GI50 in experiment [19] (Homo sapiens, DU-145, 72 h) was 0.04 µM; in experiment [20] (Homo sapiens, HT-1080, 72 h), 0.08 µM.
Consider `C/C=C1\NC(=O)c2ccc(SC)c(n2)CNC(=O)C[C@@H](/C=C/CCSC(=O)CCCCCCC)OC(=O)[C@H](C)NC1=O` [Compound 182], for which the “IC50 HDAC7” value at HDAC7 is “no activity”. The GI50 in [1] (Homo sapiens, K562, 72 h) was determined as 0.083 µM; in experiment [2] (Homo sapiens, SGC-7901, 72 h) it was 0.071 µM; in experiment [3] (Homo sapiens, LNCaP, 72 h) it was 0.1 µM; in experiment [4] (Homo sapiens, MCF7, 72 h), 0.03 µM; in experiment [5] (Homo sapiens, MOLT-4, 72 h), 0.03 µM; in experiment [6] (Homo sapiens, HeLa, 72 h), 0.06 µM. In addition, the GI50 was 0.039 µM in [7] (Homo sapiens, NCI-H1975, 72 h); 0.031 µM in experiment [8] (Homo sapiens, KBM5, 72 h); 0.035 µM in experiment [9] (setting [21]); 0.07 µM in experiment [10] (Homo sapiens, BGC-823, 72 h); 0.06 µM in experiment [11] (Homo sapiens, A549, 72 h); 0.08 µM in experiment [12] (Homo sapiens, U-937, 72 h). For the same compound, the GI50 in experiment [13] (Homo sapiens, PANC-1, 72 h) was 0.09 µM; in experiment [14] (Homo sapiens, Huh-7, 72 h) it was 0.035 µM; in experiment [15] (Homo sapiens, 72 h), 0.041 µM; in experiment [16] (Homo sapiens, 72 h), 0.023 µM; in experiment [17] (Homo sapiens, HCC827, 72 h), 0.023 µM; in experiment [18] (Homo sapiens, Bel-7402, 72 h) it was 0.035 µM. For the same compound, the GI50 stood at 0.05 µM in [19] (Homo sapiens, DU-145, 72 h) and 0.03 µM in experiment [20] (Homo sapiens, HT-1080, 72 h).

For the origin of these results see patent US10065990B2, “Cyclic peptide compound, and preparation method, pharmaceutical composition and use thereof” (HANGZHOU GUANYU BIO-MEDICAL CO., LTD, priority 2013, dated 2018).
